In ChEMBL document CHEMBL4184146, “Interrogating the Roles of Post-Translational Modifications of Non-Histone Proteins” (J Med Chem, 2018):

What was measured:
[1] = target: T1, Geranylgeranyl transferase type I (Homo sapiens, UniProt P49354+P53609); experiment: Inhibition of GGTase1 (unknown origin) expressed in mouse NIH-3T3 cells transfected with k-Ras4B assessed as decrease in geranylgeranylation of k-Ras4B after 24 hrs by chemoluminescence assay; type: cell-based
[2] = target: T2, Protein farnesyltransferase (Homo sapiens, UniProt P49354+P49356); experiment: Inhibition of FTase (unknown origin) expressed in mouse NIH-3T3 cells transfected with human H-Ras assessed as decrease in farnesylation of H-Ras after 24 hrs by chemoluminescence assay; type: cell-based
[3] = target: T3, Glycylpeptide N-tetradecanoyltransferase (Neosartorya fumigata (strain ATCC MYA-4609 / Af293 / CBS 101355 / FGSCA1100) (Aspergillus fumigatus), UniProt Q9UVX3); experiment: Inhibition of recombinant Aspergillus fumigatus NMT (Gln86 to Leu492 residues) expressed in Escherichia coli BL21(DE3) pLysS cells using [3H]-myristoyl coenzyme A/CAP5.5 as substrate after 20 mins by scintillation proximity assay
T3 sequence (Q9UVX3 whole entry): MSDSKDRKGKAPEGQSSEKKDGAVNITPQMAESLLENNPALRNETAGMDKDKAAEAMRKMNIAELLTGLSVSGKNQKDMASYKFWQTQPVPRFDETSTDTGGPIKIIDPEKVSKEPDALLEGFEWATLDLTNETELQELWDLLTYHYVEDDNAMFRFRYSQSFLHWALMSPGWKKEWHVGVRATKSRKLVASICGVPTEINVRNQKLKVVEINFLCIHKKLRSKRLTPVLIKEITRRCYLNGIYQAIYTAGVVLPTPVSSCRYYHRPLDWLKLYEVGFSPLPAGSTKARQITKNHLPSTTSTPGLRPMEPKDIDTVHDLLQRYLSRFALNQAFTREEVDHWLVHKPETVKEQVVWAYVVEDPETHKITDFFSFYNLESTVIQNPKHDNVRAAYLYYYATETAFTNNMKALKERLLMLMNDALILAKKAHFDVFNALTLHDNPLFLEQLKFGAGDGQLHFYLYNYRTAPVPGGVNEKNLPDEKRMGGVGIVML

[4] = target: T2, Protein farnesyltransferase; experiment: Inhibition of FTase isolated from human Burkitt's lymphoma cells assessed as decrease in transfer of [3H]farnesyl from [3H]farnesyl PPi to H-Ras-CVLS
[5] = target: T1, Geranylgeranyl transferase type I; experiment: Inhibition of GGTase1 isolated from human Burkitt's lymphoma cells assessed as decrease in transfer of [3H]H]geranylgeranyl from [3H]geranylgeranyl PPi to H-Ras-CVLL
[6] = target: T2, Protein farnesyltransferase; experiment: Inhibition of FTase (unknown origin); type: protein-complex assay
[7] = target: T1, Geranylgeranyl transferase type I; experiment: Inhibition of GGTase1 (unknown origin); type: protein-complex assay
[8] = target: geranylgeranyltransferase type-I (Rattus norvegicus, UniProt P53610+Q04631); experiment: Inhibition of rat brain GGTase1 assessed as decrease in transfer of [3H]H]geranylgeranyl from [3H]geranylgeranyl PPi to H-Ras-CVLL after 30 mins by liquid scintillation counting method
[9] = target: T2, Protein farnesyltransferase; experiment: Inhibition of FTase (unknown origin) using H-ras as substrate; type: protein-complex assay

## COC(=O)[C@H](CC(C)C)NC(=O)c1ccc(NC[C@@H](N)CS)cc1-c1ccccc1
[1]
  IC50: 2000 nM
[2]
  IC50: > 30000 nM

## Cc1c(NS(=O)(=O)c2c(Cl)cc(-c3ccnc(N4CCNCC4)c3)cc2Cl)c(CC(C)C)nn1C [ZELENIRSTAT]
[3]
  IC50: 12 nM

## CC(C)C[C@H](NC(=O)c1ccc(NC[C@@H](N)CS)cc1-c1cccc2ccccc12)C(=O)O
[4]
  IC50: 200 nM
[5]
  IC50: 50 nM

## COC(=O)[C@H](CCSC)NC(=O)CN1C[C@H](N(C)C(=O)[C@H](N)CS)N=C(c2ccccc2)c2ccccc21
[6]
  IC50: 41 nM
[7]
  IC50: > 1000 nM

## NC(=O)N1CCC(CC(=O)N2CCC([C@H]3c4ncc(Br)cc4CCc4cc(Cl)cc(Br)c43)CC2)CC1 [LONAFARNIB]
[8]
  IC50: > 1000 nM

## O=C(c1cn(Cc2cncn2Cc2ccc(Br)cc2)cc1-c1cccc2ccccc12)N1CCOCC1
[9]
  IC50: 0.8 nM
